A word on the melting point: it is the temperature, or range, at which the solid turns liquid.

Take `CN1CCCCC1CCc1ccccc1NC(=O)c1ccc([N+](=O)[O-])cc1` (configuration not stated): the melting point lay in the range of 162 to 164 °C. The same measure for `OCc1ccc(C2=NOC(c3cc(Cl)cc(Cl)c3)(C(F)(F)F)C2)cc1` (configuration not stated): 108 to 110 °C; for `CCOC(=O)c1ccc(OC(F)F)cc1S(=O)(=O)NC(=O)Nc1nc(OC)cc(OC)n1`: 146 to 149 °C. The same measure for `CC(C)C(=O)Nc1cccn1C`: 122 to 124 °C; for `CC(=O)N1CCN(C(C)=O)C1=Nc1ccc(Cl)cc1Cl`: 113 to 115 °C; for `O=C1N(Cc2ncccc2C(F)(F)F)c2ccccc2C12COc1c2ccc2c1OCCO2` (configuration not stated): 206 to 207 °C. With `CC(C)(C)NC(=O)C1CCCN1C(=O)C(O)C(Cc1ccccc1)NC(=O)C(CC(N)=O)NC(=O)COc1cccc(NC(=O)OCc2ccccc2)c1` (configuration not stated) the figure was 107 to 117 °C. For the molecule `Cc1c(C)c2c(c(C)c1NC(=O)CC(C)(C)C)C(c1ccc(C(C)C)cc1)CO2` (configuration not stated), the melting point lay within 171 to 173 °C. With `CN1Cc2ccccc2C(=O)c2c(CC(=O)O)cccc21` the figure was 178 to 181 °C; with `N#CCNC(COCc1cc(C(F)(F)F)cc(C(F)(F)F)c1)C(c1ccccc1)c1ccccc1` (configuration not stated), 78 to 80 °C.

`CCC(CC)(COc1nn2ccnc2cc1C)CS(N)(=O)=O` gave a melting point of 210 to 211 °C. With `CSc1nc(-c2ccc(S(C)(=O)=O)cc2)n(-c2ccc(C)c(C)c2)c(=O)c1C#N` the figure was 245 to 247 °C; with `CN1C=CCC(C(=O)NCCc2c[nH]c3ccccc23)=C1`, 40 to 70 °C. With `CCOC(=O)COc1ccc(C(=O)[C@H](Cc2ccc(OC)cc2)NC(=O)OC(C)(C)C)cc1` the figure was 95 to 97 °C; with `N#CCC(CC#N)c1cccc(OCc2ccccc2)c1`, 140 to 143 °C. With `Nc1ccc(Oc2ccc(C3CCCCC3)cc2)c(N)c1` the figure was 101 °C; with `CC(=O)c1ccc(OCCCc2ccccc2)cc1`, 80 to 81 °C; with `Cc1cccc(CN2NCC(=O)NC2=O)c1`, 158 °C. The molecule `NS(=O)(=O)c1ccccc1SCC(F)F` came in with a melting point of 111 to 112 °C. `O=C1N(c2ccccc2)CCN1C1CCNCC1`: the melting point lay within 123 to 124 °C. `CON=C(Nc1nc(C)cc(C)n1)NS(=O)(=O)c1ccccc1S(=O)(=O)OC` displayed a melting point of 130 to 138 °C. The same measure for `OCc1cnoc1-c1ccc(Cl)c(Cl)c1`: 101 to 102 °C; for `C=C1C(=O)OC2C1CCC(C)=CCCC1(C)OC21` (configuration not stated): 112 to 113 °C. With `O=Cc1cn(-c2ccc(C(F)(F)F)cn2)nc1C1CCCCC1` the figure was 103 to 104 °C; with `COc1ccc(C2=NN(C3CCN(C(=O)CN4CCN(C)CC4)CC3)C(=O)C(C)(C)C2)c2c1OC(C)(C)C2`, 121 to 123 °C; with `COc1ccc(/C(=C\C=C\C(=O)O)C2CC2)cc1`, 154 to 156 °C. For `O=C(Cl)c1ccc2c(c1)C(C(F)(F)F)(C(F)(F)F)c1cc(C(=O)Cl)ccc1O2`, the melting point fell in the range of 216 to 218 °C. For `Cc1nc(N2CCC(c3ccc(F)cc3)CC2)c([N+](=O)[O-])c(=O)n1CCCCO`, the melting point is 154 to 156 °C.

`COc1cccc2c1OCc1nc(C(=O)O)cn1-2` came in with a melting point of 275 to 277 °C. For the molecule `CN(C)C(=O)C(C)(C)n1cc(C#N)c(-c2ccccc2)n1`, the melting point was 116 to 119 °C. With `N#CC1=C(C2CC2)Nc2n[nH]cc2C1c1cccc(N2CCOCC2)c1` (configuration not stated) the figure was > 260 °C; with `COc1ccc(CN(CCN(C)CCCCCCN=C(NC#N)NCCSCc2csc(NC(=N)N)n2)c2ccccn2)cc1`, 52 °C. Take `CC1CCc2cc([N+](=O)[O-])cnc2C1` (configuration not stated): the melting point was 55 to 56 °C. Molecule `C=C(C)C(=O)OC1=CC(O)(C(C)=O)C(C(=O)O)C=C1` (configuration not stated) displayed a melting point of 153 °C.

As for `Cc1cc(F)ccc1-c1nc(OCC(CO)CO)nc2c1ccc(=O)n2-c1c(F)cccc1F`, the melting point was in the range of 77 to 81 °C. For the molecule `CC(=O)N(C(C)C(=O)NC(C)C(=O)OC(C)(C)C)C(CO)c1ccccc1` (configuration not stated), the melting point was 38 to 40 °C. Take `Cc1nc(C(=O)O)c(C(=O)NC(C)(C)C)o1`: the melting point lay within 186 to 188 °C. With `O=C(O)CNC(=O)c1cccc(NC(=O)C(CS)Cc2ccccc2)c1` (configuration not stated) the figure was 80 to 83 °C. With `C=CCOc1nc(N(CC=C)CC=C)nc(N2CCc3ccccc3CC2)c1C#N` the figure was 126 to 130 °C; with `O=C(O)c1ccc(OCCCNc2ccc(NCc3ccc4c(c3)OCCO4)cc2)cc1`, 246 to 247 °C. The same measure for `Oc1ccc2c(-c3cc(F)ccc3F)noc2c1Cl`: 256 to 257 °C; for `OCCOCc1nn(Cc2ccccc2)c2ccccc12`: 67 to 69 °C. `C(=C\c1ncc(-c2cnc(-c3ccccc3)nc2)[nH]1)/c1cccnc1` gave a melting point of 258 °C. With `COc1ccc(COc2ccc3[nH]c4c([N+](=O)[O-])ccc(Cl)c4c(=O)c3c2)cc1` the figure was 187 to 189 °C; with `CCNC(=O)Nc1ccc(-c2sc3c(c2CN(C)CCC(=O)NCCOC)c(=O)n(-c2ccccc2)c(=O)n3Cc2c(F)cccc2F)cc1`, 240 to 244 °C; with `COc1cc(C2CCN(C(=O)OC(C)(C)C)CC2)cnc1COc1ccc(S(C)(=O)=O)cc1`, 153 to 154 °C. With `COC(=O)C1=Cc2ccccc2OC1`, the melting point fell in the range of 56 to 57 °C. As to `CC(=O)Oc1cc(S(=O)(=O)Oc2ccc(C(=O)c3c(Cc4ccccc4)oc(C)c3C)cc2C2CCCC2)ccc1C(=O)O`, the melting point lay within 55 to 90 °C.

On to `N=C(N)NCCCCOc1ccc2c(c1)CC(CC(=O)O)C(=O)N2` (configuration not stated), for which the melting point is 170 to 173 °C.

Molecule `O=S(=O)(Nc1cc(Cl)sc1Cl)c1cc(-c2ncc(C(F)(F)F)cc2Cl)ccc1Cl` gave a melting point of 106 to 108 °C. In turn, `COc1ccc(CSc2nnc(-c3ccc4[nH]ncc4c3)o2)cc1` returned a melting point of 204 to 205 °C. The molecule `Cc1cc2cc(CN3CCCCC3)cnc2cc1NC(=O)c1ccc(-c2ccc(F)cc2)cc1` yielded a melting point of 185 to 188 °C. Molecule `COCCNC(=O)c1cccc(-c2cccc3cc(Cc4cccc(N(C)C)c4)sc23)c1` displayed a melting point of 92 to 93 °C. For the molecule `C=CCOc1ccc(CCNC(=O)C(F)(F)F)cc1S(=O)(=O)N=CN(C)C`, the melting point is 92 to 93 °C. With `COc1ccc2cccc(N3C(=O)CN(Cc4ccccc4)CC3=O)c2c1` the figure was 178 °C; with `O=C1Cc2c(cc3ccccc3c2Cl)C(c2ccccc2F)N1` (configuration not stated), 206 to 209 °C. The molecule `CCCC1CCC(C2(N=C=S)C=CC(CC)=CC2)CC1` (configuration not stated) had a melting point of 43 °C. As to `Cc1ccc(F)cc1-n1c(CF)nc2ccc(N)cc2c1=O`, the melting point was in the range of 174 to 176 °C. For the molecule `[N-]=[N+]=Nc1c(F)c(F)c(C(=O)O)c(F)c1F`, the melting point was 140 to 141 °C.

As for `c1ccc(-c2cc(N3CCCCC3)c(-c3ccccc3)o2)cc1`, the melting point was 103 °C. Regarding `COc1ccc(-c2cc(C(N)=O)c(=O)n(CC=Cc3ccc(Cl)cc3)n2)cc1`, the melting point lay within 195 to 196 °C. As to `COC(=O)c1ccc2cc(CCC=O)oc2c1`, the melting point was 57 to 58 °C.

These data come from a melting point compilation (Tetko et al.; mined from patent text by program, amines drawn as free bases though some values may be those of a salt).
